This note sets out measurements from ChEMBL document CHEMBL1240444, “Aconitum and Delphinium alkaloids of curare-like activity. QSAR analysis and molecular docking of alkaloids into AChBP” (Eur J Med Chem, 2010).

The nature of test [1]: Selectivity ratio of binding affinity for alpha7 nAChR to alpha3beta2.
Test [2] in a line: Selectivity ratio of binding affinity for alpha7 nAChR to alpha4beta2 nAChR.
Test [3] in a line: Selectivity ratio of binding affinity for alpha7 nAChR to muscle nAChR. The class given is tissue-based. The following applies: Muscle tissue.

Turning to `CCN1C[C@]2(COC(=O)c3ccccc3N3C(=O)C[C@H](C)C3=O)CC[C@H](OC)[C@@]34[C@@H]5C[C@H]6[C@H](OC)[C@@H]5[C@](O)(C[C@@H]6OC)[C@](O)([C@@H](OC)[C@H]23)[C@@H]14`, the Ratio in test [1] was 100; in test [2] it was 1000; in test [3], 10000.
